System: Trichuris vulpis (whipworm)
Experiment: Efficacy against Trichuris vulpis (whipworm) in dogs (Example 14)
Settings: after 7 days; treated on Day 0; 0.5 mg/kg milbemycin oxime alone or with 2.5 mg/kg Compound A; naturally infected dogs

## milbemycin oxime
  Efficacy against T. vulpis (parasite counts): > 94%
